Measured values: US20140148432A1, “Compounds for the Treatment of Neurological Disorders” (priority 2009, published 2014)
Like-named read-outs stand apart in the source and are kept apart here.

How the values were obtained:
[1] = target: GluN1/GluN2D subtype of NMDA receptors (Rattus norvegicus, UniProt Q62645); experiment: NMDA receptor subunit selectivity, GluN1/GluN2D in Xenopus oocytes; format: cell-based; conditions: 2 min; 10 μM antagonist with 50 μM glutamate and 30 μM glycine, two min; agonists alone = 100%; read-out: GluN2D % Current Remaining
Sequence of GluN1/GluN2D subtype of NMDA receptors (Q62645 28-1323, other chains not shown): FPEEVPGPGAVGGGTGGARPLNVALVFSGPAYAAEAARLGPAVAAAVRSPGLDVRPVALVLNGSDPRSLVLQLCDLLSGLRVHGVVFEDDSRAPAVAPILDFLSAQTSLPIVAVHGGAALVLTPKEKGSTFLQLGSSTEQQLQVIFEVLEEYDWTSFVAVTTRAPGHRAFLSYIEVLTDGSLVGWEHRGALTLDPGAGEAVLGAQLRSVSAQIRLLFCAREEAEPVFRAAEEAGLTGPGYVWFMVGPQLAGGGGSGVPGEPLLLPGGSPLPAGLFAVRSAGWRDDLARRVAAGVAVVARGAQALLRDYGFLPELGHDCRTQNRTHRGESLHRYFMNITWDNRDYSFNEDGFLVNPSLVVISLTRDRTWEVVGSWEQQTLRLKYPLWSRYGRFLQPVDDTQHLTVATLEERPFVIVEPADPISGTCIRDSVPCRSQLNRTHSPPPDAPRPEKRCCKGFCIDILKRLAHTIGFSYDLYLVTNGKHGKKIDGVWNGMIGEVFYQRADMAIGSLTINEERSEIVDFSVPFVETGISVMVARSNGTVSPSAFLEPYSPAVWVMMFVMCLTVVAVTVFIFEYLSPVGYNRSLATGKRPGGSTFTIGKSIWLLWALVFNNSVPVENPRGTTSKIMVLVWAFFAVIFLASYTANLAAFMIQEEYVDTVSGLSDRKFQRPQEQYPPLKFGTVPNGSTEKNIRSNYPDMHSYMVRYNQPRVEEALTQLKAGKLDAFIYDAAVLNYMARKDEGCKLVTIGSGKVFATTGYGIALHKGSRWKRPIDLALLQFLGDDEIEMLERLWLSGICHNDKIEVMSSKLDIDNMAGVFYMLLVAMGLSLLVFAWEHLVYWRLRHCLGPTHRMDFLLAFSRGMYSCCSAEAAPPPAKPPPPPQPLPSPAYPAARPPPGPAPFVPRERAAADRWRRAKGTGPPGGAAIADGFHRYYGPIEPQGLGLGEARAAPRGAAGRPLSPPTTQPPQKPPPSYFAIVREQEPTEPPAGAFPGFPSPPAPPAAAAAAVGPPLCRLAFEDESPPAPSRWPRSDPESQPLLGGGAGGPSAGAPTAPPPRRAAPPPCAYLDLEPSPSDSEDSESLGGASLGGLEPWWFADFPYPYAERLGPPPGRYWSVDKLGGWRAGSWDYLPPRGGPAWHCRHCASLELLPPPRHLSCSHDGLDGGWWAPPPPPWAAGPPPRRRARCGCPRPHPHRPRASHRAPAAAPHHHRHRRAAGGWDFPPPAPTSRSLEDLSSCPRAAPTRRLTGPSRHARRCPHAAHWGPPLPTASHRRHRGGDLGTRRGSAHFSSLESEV
Description: (§1) Stage V and VI oocytes were surgically removed from the ovaries of large, well-fed and healthy Xenopus laevis anesthetized with 3-amino-benzoic acid ethyl ester (3 gm/l). Clusters of isolated oocytes were incubated with 292 U/ml Worthington (Freehold, N.J.) type IV collagenase or 1.3 mg/ml collagenase (Life Technologies, Gaithersburg, Md.; 17018-029) for 2 hr in Ca^2+-free solution comprised of (in mM) 115 NaCl, 2.5 KCl, and 10 HEPES, pH 7.5, with slow agitation to remove the follicular cell layer. Oocytes were then washed in the same solution supplemented with 1.8 mM CaCl2 and maintained in Barth's solution comprised of (in mM): 88 NaCl, 1 KCl, 2.4 NaHCO3, 10 HEPES, 0.82 MgSO4, 0.33 Ca(NO3)2, and 0.91 CaCl2 and supplemented with 100 μg/ml gentamycin, 10 μg/ml streptomycin, and 10 μg/ml penicillin. Oocytes were manually defolliculated and injected within 24 hrs of isolation with 3-5 ng of GluN1 subunit cRNA and 7-10 ng of GluN2 cRNA subunit in a 50 nl volume, and incubated in Barth's solution at 18° C. for 2-7 d. Glass injection pipettes had tip sizes ranging from 10-20 microns, and were backfilled with mineral oil. cRNA was synthesized from linearized template cDNA for rat glutamate receptor subunits according to manufacturer specifications (Ambion).
(§2) Two electrode voltage-clamp recordings were made 2-7 days post-injection. Oocytes were placed in a dual-track plexiglass recording chamber with a single perfusion line that splits in a Y-configuration to perfuse two oocytes. Dual recordings were made at room temperature (23° C.) using two Warner 00725B two-electrode voltage clamp amplifiers, arranged as recommended by the manufacturer. Glass microelectrodes (1-10 Megaohms) were filled with 300 mM KCl (voltage electrode) or 3 M KCl (current electrode). The bath clamps communicated across silver chloride wires placed into each side of the recording chamber, both of which were assumed to be at a reference potential of 0 mV. Oocytes were perfused with a solution comprised of (in mM) 90 NaCl, 1 KCl, 10 HEPES, […] and 0.5 BaCl2; pH was adjusted by addition of 1-3 M NaOH or HCl. Oocytes were recorded under voltage clamp at −40 mV. Final concentrations for glutamate and glycine were 50 μM and 30 μM, respectively. Concentration-response curves for experimental compounds were obtained by applying in successive fashion maximal glutamate/glycine, followed by glutamate/glycine plus variable concentrations of experimental compounds. Dose response curves consisting of 4 to 8 concentrations were obtained in this manner. The baseline leak current at −40 mV was measured before and after recording, and the full recording linearly corrected for any change in leak current. The level of inhibition by applied experimental compounds was expressed as a percent of the initial glutamate response, and averaged together across oocytes from multiple experiments. Results were pooled, and the average percent responses at antagonist concentrations were fit by the equation,
(§3) GluN1/GluN2A and GluN1/GluN2D subtype of NMDA receptors were expressed in Xenopus laevis as described in Example 13. Here, a 10 μM concentration of the antagonist was perfused with 50 μM glutamate and 30 μM glycine onto the oocyte for two min and the remaining current in the presence of the antagonist was compared to the maximal current obtained with 50 μM glutamate and 30 μM glycine alone (defined as 100%).

α1-Adrenergic = α1-Adrenergic binding, displacement of [3H]-prazosin from brain membranes; conditions: 3 μM test compound, 0.25 nM [3H]-prazosin, Wistar rat brain membranes, duplicate
Description: (§4) Binding to the human ether-a-go-go potassium channel (hERG) expressed in HEK293 cells by displacement of 1.5 nM [3H]-astemizole. Each result represents the average of displacement binding experiments done in duplicate at 10 uM of the test compound. Percent displacement of 0.25 nM [3H]-prazosin from Wistar rat brain membranes. Each result represents the average of displacement binding experiments done in duplicate at 3 μM of the test compound.

[2] = target: T1, human ether-a-go-go potassium channel (hERG) expressed in HEK293 cells (Homo sapiens, UniProt Q12809); experiment: hERG binding, displacement of [3H]-astemizole; conditions: 10 μM test compound, 1.5 nM [3H]-astemizole, duplicate
T1 construct: expressed in transfected cells; host or cells: HEK293 cells
T1 sequence (Q12809 whole entry): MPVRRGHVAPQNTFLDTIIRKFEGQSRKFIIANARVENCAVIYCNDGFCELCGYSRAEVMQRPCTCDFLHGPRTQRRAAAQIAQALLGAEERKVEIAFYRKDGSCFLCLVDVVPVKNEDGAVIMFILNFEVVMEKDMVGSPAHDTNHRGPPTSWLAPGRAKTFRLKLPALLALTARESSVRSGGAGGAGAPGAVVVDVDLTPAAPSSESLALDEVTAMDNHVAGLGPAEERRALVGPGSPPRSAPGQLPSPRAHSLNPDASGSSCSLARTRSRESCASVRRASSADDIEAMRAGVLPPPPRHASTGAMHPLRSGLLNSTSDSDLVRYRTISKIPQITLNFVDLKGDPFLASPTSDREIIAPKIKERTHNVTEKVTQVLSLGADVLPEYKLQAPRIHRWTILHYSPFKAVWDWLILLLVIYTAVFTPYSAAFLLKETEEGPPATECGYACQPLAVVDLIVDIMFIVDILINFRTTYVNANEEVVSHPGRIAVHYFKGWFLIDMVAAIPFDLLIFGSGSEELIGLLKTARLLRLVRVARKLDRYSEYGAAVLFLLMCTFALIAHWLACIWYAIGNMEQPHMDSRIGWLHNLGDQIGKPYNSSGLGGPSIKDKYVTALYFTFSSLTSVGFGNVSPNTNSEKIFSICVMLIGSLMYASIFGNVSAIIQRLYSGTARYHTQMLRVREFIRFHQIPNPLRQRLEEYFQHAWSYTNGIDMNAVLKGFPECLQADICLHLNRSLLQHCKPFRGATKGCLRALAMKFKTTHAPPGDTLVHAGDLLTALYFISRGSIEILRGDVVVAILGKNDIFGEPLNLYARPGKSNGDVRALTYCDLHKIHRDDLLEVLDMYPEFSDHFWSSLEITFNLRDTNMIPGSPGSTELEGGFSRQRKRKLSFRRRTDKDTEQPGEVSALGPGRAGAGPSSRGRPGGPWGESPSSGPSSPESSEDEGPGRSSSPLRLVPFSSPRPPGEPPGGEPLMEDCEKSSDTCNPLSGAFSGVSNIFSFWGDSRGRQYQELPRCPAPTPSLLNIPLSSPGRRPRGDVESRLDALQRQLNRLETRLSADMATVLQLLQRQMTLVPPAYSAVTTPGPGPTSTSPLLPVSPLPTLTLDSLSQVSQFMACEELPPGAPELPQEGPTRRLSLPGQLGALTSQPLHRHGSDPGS
Description: as §4

GluN1/GluN2B receptors [3] = target: GluN1/GluN2B receptors (Rattus norvegicus, UniProt P35439+Q00960); experiment: IC50 of GluN1/GluN2B receptors expressed in Xenopus oocytes (two electrode voltage-clamp), rat; format: cell-based; conditions: pH 7.4, 50 μM glutamate, 30 μM glycine
Description: as §1, §2
Percent Response=(100−minimum)/(1+([conc]/IC50)^nH)+minimum
where minimum is the residual percent response in saturating concentration of the experimental compounds, IC50 is the concentration of antagonist that causes half of the achievable inhibition, and nH is a slope factor describing steepness of the inhibition curve. Minimum was constrained to be greater than or equal to 0.
Recordings were made at pH 6.9, pH 7.4, and pH 7.6. The pH Boost ratio calculated by dividing the IC50 measured at pH 7.6 by the IC50 measured at pH 6.9.

GluN1/GluN2B receptors [4] = target: GluN1/GluN2B receptors (Homo sapiens, UniProt Q05586+Q13224); experiment: IC50 of GluN1/GluN2B receptors expressed in Xenopus oocytes (two electrode voltage-clamp), human; format: cell-based; conditions: for Human pH Boost Ratio (IC50 pH 7.6/IC50 pH 6.9): IC50 at pH 7.6 divided by IC50 at pH 6.9; for IC50: 30 μM glycine
[5] = target: GluN1/GluN2A subtype of NMDA receptors (Rattus norvegicus, UniProt Q00959); experiment: NMDA receptor subunit selectivity, GluN1/GluN2A in Xenopus oocytes; format: cell-based; conditions: 2 min; 10 μM antagonist with 50 μM glutamate and 30 μM glycine, two min; agonists alone = 100%; read-out: GluN2A % Current Remaining
Sequence of GluN1/GluN2A subtype of NMDA receptors (Q00959 23-1464, other chains not shown): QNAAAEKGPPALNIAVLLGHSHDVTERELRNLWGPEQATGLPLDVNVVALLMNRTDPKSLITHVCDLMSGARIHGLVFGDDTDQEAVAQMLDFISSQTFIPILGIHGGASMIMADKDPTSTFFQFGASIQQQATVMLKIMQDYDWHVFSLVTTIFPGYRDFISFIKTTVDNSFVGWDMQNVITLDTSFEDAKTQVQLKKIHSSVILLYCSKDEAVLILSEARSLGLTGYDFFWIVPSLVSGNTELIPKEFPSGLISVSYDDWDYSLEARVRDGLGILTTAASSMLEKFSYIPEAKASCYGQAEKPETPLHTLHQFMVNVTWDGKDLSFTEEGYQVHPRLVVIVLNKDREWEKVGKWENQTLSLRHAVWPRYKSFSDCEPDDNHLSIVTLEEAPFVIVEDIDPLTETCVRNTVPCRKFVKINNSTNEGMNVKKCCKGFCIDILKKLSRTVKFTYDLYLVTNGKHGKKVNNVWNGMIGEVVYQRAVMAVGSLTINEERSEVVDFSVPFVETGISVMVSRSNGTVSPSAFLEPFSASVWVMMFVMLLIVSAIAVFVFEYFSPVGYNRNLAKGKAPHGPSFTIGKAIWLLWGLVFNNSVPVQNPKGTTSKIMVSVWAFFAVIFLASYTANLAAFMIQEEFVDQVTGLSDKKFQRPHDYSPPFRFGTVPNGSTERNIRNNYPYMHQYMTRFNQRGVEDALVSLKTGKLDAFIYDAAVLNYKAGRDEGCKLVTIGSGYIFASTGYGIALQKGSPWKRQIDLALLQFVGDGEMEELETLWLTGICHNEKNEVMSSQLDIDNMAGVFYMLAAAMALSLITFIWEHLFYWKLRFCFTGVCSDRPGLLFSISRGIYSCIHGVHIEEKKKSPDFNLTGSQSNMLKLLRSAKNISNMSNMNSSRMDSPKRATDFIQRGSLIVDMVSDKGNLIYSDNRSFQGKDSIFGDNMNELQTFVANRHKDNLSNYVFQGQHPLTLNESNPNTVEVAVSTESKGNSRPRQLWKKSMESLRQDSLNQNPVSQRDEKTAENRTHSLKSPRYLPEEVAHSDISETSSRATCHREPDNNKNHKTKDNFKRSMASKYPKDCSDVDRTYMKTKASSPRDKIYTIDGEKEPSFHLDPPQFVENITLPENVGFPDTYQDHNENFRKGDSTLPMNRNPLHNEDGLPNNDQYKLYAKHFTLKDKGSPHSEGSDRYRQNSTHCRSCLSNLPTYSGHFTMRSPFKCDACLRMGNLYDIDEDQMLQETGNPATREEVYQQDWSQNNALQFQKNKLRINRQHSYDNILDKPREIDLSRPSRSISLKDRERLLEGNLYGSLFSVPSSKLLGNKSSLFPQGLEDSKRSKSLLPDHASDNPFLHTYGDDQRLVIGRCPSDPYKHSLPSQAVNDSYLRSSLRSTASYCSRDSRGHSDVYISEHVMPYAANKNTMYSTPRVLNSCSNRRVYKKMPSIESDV
Description: as §1, §2, §3

[6] = pH 6.9, 50 μM glutamate, read-out: Human pH 6.9 IC50
[7] = pH 7.4, 50 μM glutamate, read-out: Human pH 7.4 IC50

Row | SMILES | remaining activity at 10 µM [1] | α1-Adrenergic binding % Displacement @ 3 μM (α1-Adrenergic) | hERG Binding % Displacement @ 10 μM [2] | IC50 (GluN1/GluN2B receptors [3]) | Human pH Boost Ratio (IC50 pH 7.6/IC50 pH 6.9) (GluN1/GluN2B receptors [4]) | IC50 (GluN1/GluN2B receptors [4]; [6]) | IC50 (GluN1/GluN2B receptors [4]; [7]) | remaining activity at 10 µM [5]
1 | O=C1CCc2cc(OCC3CCN(C(=O)/C=C/c4ccc(Cl)c(Cl)c4)CC3)ccc2N1 [Compound 6, (E)-6-((1-(3-(3,4-dichlorophenyl)acryloyl)piperidin-4-yl)methoxy)-3,4-dihydroquinolin-2(1H)-one] | 101% | 28% | 85% | 1270 nM | 1.1 | 886 nM | 1640 nM | 103%
2 | O=C1CCc2cc(OCC3CCN(C(=O)OCc4ccc(Cl)cc4)CC3)ccc2N1 [Compound 11, 4-chlorobenzyl 4-(((2-oxo-1,2,3,4-tetrahydroquinolin-6-yl)oxy)methyl)piperidine-1-carboxylate] | 104% | 16% | 56% | 837 nM | 1.4 | 589 nM | 868 nM | 111%
3 | O=C1CCc2cc(OCC3CCN(C(=O)Nc4ccc(Cl)cc4)CC3)ccc2N1 [Compound 13, N-(4-chlorophenyl)-4-(((2-oxo-1,2,3,4-tetrahydroquinolin-6-yl)oxy)methyl)piperidine-1-carboxamide] | 106% | 16% | 37% | 339 nM | 2.0 | 283 nM | 468 nM | 105%
4 | O=C1CCc2cc(OCC3CCN(C(=O)Cc4ccc(Cl)cc4)CC3)ccc2N1 [Compound 15, 6-((1-(2-(4-chlorophenyl)acetyl)piperidin-4-yl)methoxy)-3,4-dihydroquinolin-2(1H)-one] | 101% | 13% | 18% | 3200 nM | 8.6 | 490 nM | 2000 nM | 96.3%
5 | O=C1CCc2cc(OCC3CCN(C(=O)Nc4ccc(C(F)(F)F)cc4)CC3)ccc2N1 [Compound 17, 4-(((2-oxo-1,2,3,4-tetrahydroquinolin-6-yl)oxy)methyl)-N-(4-(trifluoromethyl)phenyl)piperidine-1-carboxamide] | 93.9% | 7% | 75% | 359 nM | 2.0 | 237 nM | 517 nM | 98.7%
6 | O=C1CCc2cc(OCC3CN(C(=O)Nc4ccc(Cl)cc4)C3)ccc2N1 [Compound 21, N-(4-chlorophenyl)-3-(((2-oxo-1,2,3,4-tetrahydroquinolin-6-yl)oxy)methyl)azetidine-1-carboxamide] | 89.2% | 2% | 25% | 166 nM | 1.7 | 103 nM | 170 nM | 102%
7 | O=C1CCc2cc(OCC3CN(C(=O)Nc4ccc(Cl)c(Cl)c4)C3)ccc2N1 [Compound 23, N-(3,4-dichlorophenyl)-3-(((2-oxo-1,2,3,4-tetrahydroquinolin-6-yl)oxy)methyl)azetidine-1-carboxamide] | 87.6% | 25% | 60% | 53 nM | 3.0 | 19 nM | 41 nM | 94.6%
8 | O=C1CCc2cc(OCC3CN(C(=O)n4ccnc4)C3)ccc2N1 [Compound 26, 6-((1-(1H-imidazole-1-carbonyl)azetidin-3-yl)methoxy)-3,4-dihydroquinolin-2(1H)-one] | 94.9% | <1% | <1% | 6100 nM |  | > 30000 nM | > 10000 nM | 102%
9 | O=C1CCc2cc(OCC3CN(C(=O)NCc4ccc(Cl)cc4)C3)ccc2N1 [Compound 28, N-(4-chlorobenzyl)-3-(((2-oxo-1,2,3,4-tetrahydroquinolin-6-yl)oxy)methyl)azetidine-1-carboxamide] | 94.5% | 12% | 27% | 4900 nM | 3.5 | 2300 nM | 3500 nM | 102%
10 | O=C(Nc1ccc(Cl)cc1)N1CCC(COc2ccc(O)cc2)CC1 [Compound 33] | 104% |  |  |  | 1.8 | 740 nM |  | 111%
11 | O=C(Nc1ccc(Cl)c(Cl)c1)N1CCC(COc2ccc(O)cc2)CC1 [Compound 35, N-(3,4-dichlorophenyl)-4-((4-hydroxyphenoxy)methyl)-piperidine-1-carboxamide] | 104% |  |  |  | 1.2 | 764 nM |  | 104%
